Read-outs that look alike come from different tables or passages of the source.
Key:
[1] = target: His6-ERα298-554 WT (ERα ligand-binding domain) (Homo sapiens (Human), UniProt P03372); assay: Test A: biochemical antagonist activity, LanthaScreen TR-FRET ERα coactivator assay, WT; conditions: read-out: Antagonism WT IC50
Outline: (§1)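 IC50 values come from a 4-parameter logistic fit of the 520:495 nm TR-FRET ratio after overnight room-temperature incubation. The mix held 0.5 nM ERα 298–554 LBD, Tb-labelled anti-His6 antibody, 250 nM PGC1a peptide and 3 nM or 10 nM estradiol, pH 7.4 phosphate buffer with DTT.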

[2] = target: His6-ERα298-554 D538G mutant (ERα ligand-binding domain) (Homo sapiens (Human), UniProt P03372, D538G); assay: Test A: biochemical antagonist activity, LanthaScreen TR-FRET ERα coactivator assay, D538G mutant; conditions: read-out: Antagonism D538G IC50
Sequence of His6-ERα298-554 D538G mutant (ERα ligand-binding domain) (P03372 298-554 D538G): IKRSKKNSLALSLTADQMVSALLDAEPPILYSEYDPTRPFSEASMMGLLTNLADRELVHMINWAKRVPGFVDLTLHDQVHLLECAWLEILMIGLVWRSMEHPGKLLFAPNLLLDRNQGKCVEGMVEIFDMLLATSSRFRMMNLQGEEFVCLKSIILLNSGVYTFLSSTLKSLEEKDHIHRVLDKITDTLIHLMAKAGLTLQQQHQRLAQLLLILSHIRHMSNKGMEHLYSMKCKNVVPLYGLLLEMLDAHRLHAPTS
Outline: as §1

[3] = target: His6-ERα298-554 Y537S mutant (ERα ligand-binding domain) (Homo sapiens (Human), UniProt P03372, Y537S); assay: Test A: biochemical antagonist activity, LanthaScreen TR-FRET ERα coactivator assay, Y537S mutant; conditions: read-out: Antagonism Y537S IC50
Sequence of His6-ERα298-554 Y537S mutant (ERα ligand-binding domain) (P03372 298-554 Y537S): as the sequence (P03372 298-554 D538G) above, with Y240S, G241D counted along it
Outline: as §1

[4] = tested on: MCF7 cells (breast tumor cells) WT; assay: Test B: cell proliferation/viability assay (CellTiter-Glo) on MCF7 WT; assay type: cell-based; conditions: Homo sapiens, MCF7, 168 h, 7 days of compound exposure
Protocol: (§2) Test B: Cell Proliferation/Viability Assay on MCF7 (Breast Tumor Cells) WT and Mutants Cell Lines
(§3) Test B involves measuring the in vitro proliferation activity of the compounds of the invention by analyzing the viability of the tumor cells.
The measurements of the viability were made using a breast cancer cell viability assay as described hereunder. […]
(§4) MCF7 cells (ATCC) or MCF7 cells expressing (and dependent) on mutants estrogen receptor Tyr 537 Ser or Asp 538 Gly were seeded in 384 wells microplate at concentration of >999 cells/30 μL per well in red phenol free MEM medium containing 5% charcoal dextran striped FBS. The following day, 9 points serial 1:5 dilution of each compound were added to the cells in 20 μL at final concentrations ranging from 3-0.000001 μM. After 7 days of compound exposure, 50 μL of CellTiter-Glo (promega) was added to the cells and relative luminescence arbitrary units (RLUs) were determined in luminescence plate reader (Envision device). CellTiter-Glo was added to 50 μL medium without cells to determine the background signal.
(§5) The percent of viability of each sample was determined as follows: (RLU sample−RLU background/RLU untreated−RLU background)*100=% viability.

[5] = tested on: MCF7 cells expressing mutant estrogen receptor Tyr 537 Ser; assay: Test B: cell proliferation/viability assay (CellTiter-Glo) on MCF7 Tyr 537 Ser mutant; assay type: cell-based; conditions: Homo sapiens, MCF7, 168 h, MCF7 cells expressing ER Tyr 537 Ser mutant, 7 days of compound exposure, read-out: proliferation MCF7 Y537S IC50
From the text: as §2, §3
(§6) The measurements of the viability were made using a breast cancer cell viability assay as described hereunder.
(§7) MCF7 cells expressing (and dependent) on mutants estrogen receptor Tyr 537 Ser or Asp 538 Gly were generated by transfection of MCF7 parental cells (ATCC) with expression vectors coding for different mutants of estrogen receptor Tyr 537 Ser or Asp 538 Gly. The cells were first selected by antibiotic (related to vector expression) and then selected for their growth dependence on estrogen receptor based on their ability to grow in vitro in absence of estradiol (parental cell line die in absence of estradiol).
as §4, §5

[6] = tested on: MCF7 cells expressing mutant estrogen receptor Asp 538 Gly; assay: Test B: cell proliferation/viability assay (CellTiter-Glo) on MCF7 Asp 538 Gly mutant; assay type: cell-based; conditions: Homo sapiens, MCF7, 168 h, MCF7 cells expressing ER Asp 538 Gly mutant, 7 days of compound exposure, read-out: proliferation MCF7 D538G IC50
From the text: as §2, §3, §6, §7, §4, §5

[7] = target: ERα in MCF7 cells (Homo sapiens (Human), UniProt P03372); assay: Test C: estrogen receptor degradation activity, ERα in cell western assay in MCF7 cells; assay type: cell-based; conditions: for DC50: 4 hours post compound addition, ERα in cell western, read-out: Degradation IC50; for % Degradation at 3 μM: 4 hours, relative to fulvestrant
Sequence of ERα in MCF7 cells (P03372 whole entry): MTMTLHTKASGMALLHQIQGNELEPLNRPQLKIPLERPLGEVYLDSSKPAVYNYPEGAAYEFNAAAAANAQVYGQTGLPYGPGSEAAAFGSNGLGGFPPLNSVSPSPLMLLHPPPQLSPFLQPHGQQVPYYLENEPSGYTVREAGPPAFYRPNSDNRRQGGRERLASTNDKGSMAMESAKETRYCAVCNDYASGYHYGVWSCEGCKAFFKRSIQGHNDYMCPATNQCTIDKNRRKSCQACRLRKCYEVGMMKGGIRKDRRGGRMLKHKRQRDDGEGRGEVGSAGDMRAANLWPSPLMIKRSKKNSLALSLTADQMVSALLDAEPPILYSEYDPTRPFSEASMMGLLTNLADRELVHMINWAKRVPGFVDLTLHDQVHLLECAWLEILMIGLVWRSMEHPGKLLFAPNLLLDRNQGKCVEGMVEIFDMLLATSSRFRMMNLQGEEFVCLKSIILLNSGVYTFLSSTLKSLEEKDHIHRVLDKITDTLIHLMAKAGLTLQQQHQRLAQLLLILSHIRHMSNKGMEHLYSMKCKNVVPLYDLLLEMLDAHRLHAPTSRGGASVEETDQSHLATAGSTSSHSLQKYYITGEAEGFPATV
Outline: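 ERα level is read as integrated green fluorescence, with DNA taken from red Syto-64 signal, after MCF7 cells are exposed to compound for 4 hours. Cells grow in hormone-depleted medium (5% charcoal-dextran stripped FBS, no phenol red); fulvestrant at 0.1 μM is the positive control.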

[8] = asterisk (*): protocol using 10 nM estradiol

Sequence of His6-ERα298-554 WT (ERα ligand-binding domain) (P03372 298-554): as the sequence (P03372 298-554 D538G) above, with G241D counted along it

Structure (SMILES) | IC50 [1, 8] [nM] | IC50 [2, 8] [nM] | IC50 [3, 8] [nM] | IC50 [4] [nM] | IC50 [5] [nM] | IC50 [6] [nM] | DC50 [7] [nM] | % Degradation at 3 μM [7] [%] | IC50 ([1]; protocol with 3 nM estradiol) [nM] | IC50 ([2]; protocol with 3 nM estradiol) [nM] | IC50 ([3]; protocol with 3 nM estradiol) [nM]
COc1ccc(C2=C(c3ccc(O[C@H]4CCN(CCCF)C4)cc3)c3ccc(O)cc3SC2)c(F)c1 [Example 24, 3-(2-fluoro-4-methoxy-phenyl)-4-[4-[(3S)-1-(3-fluoropropyl)pyrrolidin-3-yl]oxyphenyl]-2H-thiochromen-7-ol] | 5 | 80 | 44 | 0.3 | 6 | 0.9 | 0.2 | 91 |  |  | 
Oc1ccc2c(c1)C(c1ccc(N[C@H]3CCN(CCCF)C3)cc1)=C(c1ccc(F)cc1Cl)CC2 [Example 84, 7-(2-chloro-4-fluoro-phenyl)-8-[4-[[(3S)-1-(3-fluoropropyl)pyrrolidin-3-yl]amino]phenyl]-5,6-dihydronaphthalen-2-ol] |  |  |  | 0.4 | 6 | 2 | 2 | 78 | 30 | 1750 | 958
Oc1ccc2c(c1)SCCC(c1ccc(OC(F)(F)F)cc1)=C2c1ccc(O[C@H]2CCN(CCCF)C2)cc1 [Example 214, 5-[4-[(3S)-1-(3-fluoropropyl)pyrrolidin-3-yl]oxyphenyl]-4-[4-(trifluoromethoxy)phenyl]-2,3-dihydro-1-benzothiepin-8-ol] | 38 | 539 | 457 | 0.4 | 6 | 0.7 | 1 | 82 |  |  | 
CCOc1ccc(C2=C(c3ccc(O[C@H]4CCN(CCCF)C4)cc3)c3ccc(O)cc3SCC2)c(F)c1F [Example 217, 4-(4-ethoxy-2,3-difluoro-phenyl)-5-[4-[(3S)-1-(3-fluoropropyl)pyrrolidin-3-yl]oxyphenyl]-2,3-dihydro-1-benzothiepin-8-ol] | 4 | 61 | 39 | 0.1 | 5 | 0.6 | 0.2 | 87 |  |  | 
CCN(CC)c1ccc(C2=C(c3ccc(O[C@H]4CCN(CCCF)C4)cc3)c3ccc(O)cc3SCC2)c(F)c1 [Example 224, 4-[4-(diethylamino)-2-fluoro-phenyl]-5-[4-[(3S)-1-(3-fluoropropyl)pyrrolidin-3-yl]oxyphenyl]-2,3-dihydro-1-benzothiepin-8-ol] | 71 | 1480 | 1030 | 3 | 83 | 8 | 3 | 85 |  |  | 
Oc1ccc2c(c1)CCCC(c1ccc(Cl)cc1Cl)=C2c1ccc(O[C@H]2CCN(CCCF)C2)nc1 [Example 239, 6-(2,4-dichlorophenyl)-5-[6-[(3S)-1-(3-fluoropropyl)pyrrolidin-3-yl]oxy-3-pyridyl]-8,9-dihydro-7H-benzo[7]annulen-2-ol] | 13 | 13 | 9 | 0.3 | 3 | 1 | 0.6 | 87 |  |  | 
CC(C)(C)OC(=O)N1CCOc2ccc(C3=C(c4ccc(O[C@H]5CCN(CCCF)C5)cc4)c4ccc(O)cc4SC3)cc21 [Example 59, tert-butyl 6-[4-[4-[(3S)-1-(3-fluoropropyl)pyrrolidin-3-yl]oxyphenyl]-7-hydroxy-2H-thiochromen-3-yl]-2,3-dihydro-1,4-benzoxazine-4-carboxylate] | 879 | > 4000 | > 4000 | 27 | > 999 | > 999 | 0.9 | 81 |  |  | 
Oc1ccc2c(c1)SCCC(c1ccc(Cl)cc1Cl)=C2c1ccc(O[C@H]2CCN(CCCF)C2)nc1 [Example 205, 4-(2,4-dichlorophenyl)-5-[6-[(3S)-1-(3-fluoropropyl)pyrrolidin-3-yl]oxy-3-pyridyl]-2,3-dihydro-1-benzothiepin-8-ol] |  |  |  | 0.2 | 3 | 0.2 | 0.4 | 84 |  |  | 
Oc1ccc(C2=C(c3ccc(O[C@H]4CCN(CCCF)C4)cc3)c3ccc(O)cc3CC2)cc1 [Example 15, 5-[4-[(3S)-1-(3-fluoropropyl)pyrrolidin-3-yl]oxyphenyl]-6-(4-hydroxyphenyl)-7,8-dihydronaphthalen-2-ol] |  |  |  | 0.2 | 30 | 25 |  |  |  |  | 
O=C(O)c1ccc2c(c1)SCCC(c1ccc(Cl)cc1Cl)=C2c1ccc(O[C@H]2CCN(CCCF)C2)cc1 [Example 203, 4-(2,4-dichlorophenyl)-5-[4-[(3S)-1-(3-fluoropropyl)pyrrolidin-3-yl]oxyphenyl]-2,3-dihydro-1-benzothiepine-8-carboxylic acid] |  |  |  | 0.8 | 13 | 1 | 0.6 | 93 |  |  | 
Oc1ccc2c(c1)CCC(c1ccc(Cl)cc1Cl)=C2c1ccc(O[C@H]2CCN(CCCF)C2)cc1 [Example 14, 6-(2,4-dichlorophenyl)-5-[4-[(3S)-1-(3-fluoropropyl)pyrrolidin-3-yl]oxyphenyl]-7,8-dihydronaphthalen-2-ol] |  |  |  | 0.5 | 6 | 1 |  |  |  |  | 
Oc1ccc2c(c1)SCCC(c1ccc(Cl)cc1Cl)=C2c1ccc(O[C@H]2CCN(CCCF)C2)cc1 [Example 166, 4-(2,4-dichlorophenyl)-5-[4-[(3S)-1-(3-fluoropropyl)pyrrolidin-3-yl]oxyphenyl]-2,3-dihydro-1-benzothiepin-8-ol] |  |  |  | 0.2 | 8 | 1 | 2 | 90 |  |  | 
Oc1ccc2c(c1)CCCC(c1ccc(Cl)c(F)c1)=C2c1ncc(O[C@H]2CCN(CCCF)C2)cn1 [Example 254, 6-(4-chloro-3-fluoro-phenyl)-5-[5-[(3S)-1-(3-fluoropropyl)pyrrolidin-3-yl]oxypyrimidin-2-yl]-8,9-dihydro-7H-benzo[7]annulen-2-ol] |  |  |  | 16 | 129 | 17 |  |  |  |  | 
Cc1nc(C)c(C2=C(c3ccc(O[C@H]4CCN(CCCF)C4)cc3)c3ccc(O)cc3SC2)s1 [Example 68, 3-(2,4-dimethylthiazol-5-yl)-4-[4-[(3S)-1-(3-fluoropropyl)pyrrolidin-3-yl]oxyphenyl]-2H-thiochromen-7-ol] |  |  |  | 14 | 125 | 7 |  |  |  |  | 
Oc1ccc2c(c1)CCC(c1ccc(F)cc1Cl)=C2c1ccc(O[C@H]2CCN(CCCF)C2)cc1 [Example 13, 6-(2-chloro-4-fluoro-phenyl)-5-[4-[(3S)-1-(3-fluoropropyl)pyrrolidin-3-yl]oxyphenyl]-7,8-dihydronaphthalen-2-ol] |  |  |  | 0.4 | 8 | 3 |  |  |  |  | 
CC(C)Oc1ccc(C2=C(c3ccc(O[C@H]4CCN(CCCF)C4)cc3)c3ccc(O)cc3OCC2)c(C(F)(F)F)c1.Cl [Example 150, 5-[4-[(3S)-1-(3-fluoropropyl)pyrrolidin-3-yl]oxyphenyl]-4-[4-isopropoxy-2-(trifluoromethyl)phenyl]-2,3-dihydro-1-benzoxepin-8-ol hydrochloride] |  |  |  | 0.4 | 14 | 2 | 4 | 82 |  |  | 

Reference: patent US11149031B2, “Substituted N-(3-fluoropropyl)-pyrrolidine compounds, processes for their preparation and therapeutic uses thereof” (SANOFI, priority 2016, dated 2021)
